What all share (assay type): physicochemical
The nature of series [1]: T1-relaxivity (r1) of Fe3+ versus Fe2+ complex at pH 7.4. Conditions: for relaxivity r1: normalized to Fe concentration, Fe^2+ formed in situ with excess sodium ascorbate. From the text: FIG. 7 compares the relaxivity (r1; the Fe induced increase in T1 relaxation rate (R1) normalized to Fe concentration in mM) recorded for Fe^3+-CDTA-Ph-3,5-CF3 and Fe^2+-CDTA-Ph-3,5-CF3 at pH 7.4.
(§1) The term “relaxivity” as used herein, refers to the increase in either of the MR quantities 1/T1 or 1/T2 per millimolar (mM) concentration of paramagnetic ion or contrast agent, which quantities may be different if the contrast agent contains a multiplicity of paramagnetic ions, wherein T1 is the longitudinal or spin-lattice relaxation time, and T2 is the transverse or spin-spin relaxation time of water protons or other imaging or spectroscopic nuclei, including protons found in molecules other than water. Relaxivity is expressed in units of mM^−1s^−1.
FIG. 7 compares the relaxivity (r1; the Fe induced increase in T1 relaxation rate (R1) normalized to Fe concentration in mM) recorded for Fe^3+-CDTA-Ph-3,5-CF3 and Fe^2+-CDTA-Ph-3,5-CF3 at pH 7.4. The Fe^2+ complex was formed in situ by addition of excess sodium ascorbate. The r1 values for the Fe^3+ complex ([…] mM^−1s^−1) is 7.5-times greater than the sister Fe^2+ complex (2.8±0.003 mM^−1s^−1).

The nature of series [2]: pH-potentiometric titration combined with EDTA competition assay. The conditions noted are these: estimated. The method, then:
The title compound was synthesized in situ by mixing the compound obtained in step 1 with 0.5 molar equiv. Fe2(SO4)3, (i.e., 1 molar equiv. Fe^3+). In one representative sample preparation, used for pH-potentiometry measurements, 7.2 mg (0.011 mmol) Ligand were mixed with 4.4 mg (0.011 mmol Fe) were mixed in 3.4 mL water (with 0.1 M NaCl), and the pH adjusted using 0.1 M NaOH. ESI-MS for [C22H22F6FeN3O7]^−: m/z [M^−]=609.1 (calc.); m/z=609.1(obsv.)
From the titration data (performed in combination with EDTA competition assay at pH 3), a log K=23.7 s estimated for Fe-CDTA-Ph-3,5-CF3.

A short description of series [3]: Cyclic voltammetry. The conditions noted are these: 0.5 M KNO3, GC working, Ag/AgCl reference, Pt counter electrode.
The nature of series [4]: T1-relaxivity (r1) as a function of pH.
Text: FIG. 5A compares the pH-dependence on T1-relaxivity (r1; the Fe induced increase in T1 relaxation rate (R1) normalized to Fe concentration in mM) for the structurally related Fe^3+ complexes Fe-CDTA-Ph-3,5-CF3 and Fe-PyCy2AI.
as §1
FIG. 5, Panel A, compares the pH-dependence on T1-relaxivity (r1; the Fe induced increase in T1 relaxation rate (R1) normalized to Fe concentration in mM) for the structurally related Fe^3+ complexes Fe-CDTA-Ph-3,5-CF3 and Fe-PyCy2AI.

SMILES strings stand for the structures. Bounds are passed on as bounds.

For `O=C(O)CN(CC(=O)O)C1CCCCC1N(CC(=O)O)CC(=O)Nc1cc(C(F)(F)F)cc(C(F)(F)F)c1.[Fe+2]` (centres unmarked) [Fe^2+-CDTA-Ph-3,5-CF3], the “relaxivity r1” value in series [1] (pH 7.4) was 2.8 ± 0.003 mM⁻¹ s⁻¹.

Take `O=C(O)CN(CC(=O)O)C1CCCCC1N(CC(=O)O)CC(=O)Nc1cc(C(F)(F)F)cc(C(F)(F)F)c1.[Fe+3]` (centres unmarked) [Fe-CDTA-Ph-3,5-CF3]: in series [2] (pH-potentiometric titration in combination with EDTA competition assay at pH 3), the “log K (Fe^3+ complex stability)” value was 23.7. Further, the pKa in series [2] (water, 0.1 m nacl, pH-potentiometric titration, 1 molar equiv. Fe^3+, read-out: pKa (deprotonation of ML to MLH−1)) was 4.9. Besides, in series [3] (pH 3), the “oxidation and reduction waves, reversibility” value was “reversible oxidation and reduction waves”. For the same molecule, the “separation of oxidation and reduction waves” value in series [3] (pH 8) is reported as about 1 V. Moreover, the “speciation at pH 7.4” value in series [4] (pH 7.4) is given as “dominated by the monomeric complex”. Besides, the “r1 (T1-relaxivity), comparison in words” value in series [4] (pH 7.4, compared with Fe-PyC3A / Fe-PyCy2AI) is given as “much greater”. Further, the pKa in series [4] (r1 vs pH, read-out: pKa of the Fe^3+ water co-ligand) is over 7.4. Further, in series [1] (pH 7.4), the “ratio of r1 Fe^3+ complex to Fe^2+ complex” value is reported as 7.5 -times and the “relaxivity r1” value is 2.1 ± 0.11 mM⁻¹ s⁻¹. Moreover, the “ratio of r1 Fe^3+ complex to Fe^2+ complex (heading of Example 5)” value in series [1] (stated in heading) is listed as 10 -fold.

The record behind these values is US20260337214A1, “IRON BASED MRI PROBES” (The General Hospital Corporation, priority 2022, published 2026).
